Earlier results as cited in US20170215417A1, “ANTIMICROBIAL COMPOSITIONS” (LIVIONEX, Inc., priority 2013, published 2017).
Where two headings read alike, the source gives them in different places.

What was measured:
[1] = system: Trichomichosis axillaris polymicrobial infection; details: for average time for resolution of the disease: then antimicrobial cream or lotion (Kim, Korean J Med Mycol. 2005)
[2] = @ 79° F.

Structure (SMILES) | irritation and contact dermatitis with standard treatment ([1]; standard treatment: shaving, then antimicrobial cream or lotion) | average time for resolution of the disease ([1]; standard treatment: shaving) [weeks] | irritation and contact dermatitis with standard treatment ([1]; human, in vivo) | water solubility [2] [% w/v]
O=C(OOC(=O)c1ccccc1)c1ccccc1 [benzoyl peroxide] | often results in irritation and contact dermatitis | 3 |  | 
CC[C@H]1OC(=O)[C@H](C)[C@@H](O[C@H]2C[C@@](C)(OC)[C@@H](O)[C@H](C)O2)[C@H](C)[C@@H](O[C@@H]2O[C@H](C)C[C@H](N(C)C)[C@H]2O)[C@](C)(O)C[C@@H](C)C(=O)[C@H](C)[C@@H](O)[C@]1(C)O [erythromycin] |  | 3 | often results in irritation and contact dermatitis | 
CS(C)(=O)=O [MSM, methylsulfonylmethane] |  |  |  | 34
